Assay results from patent US9763943B2, “Trk-inhibiting compound” (ONO PHARMACEUTICAL CO., LTD., priority 2013, dated 2017).

Test system: sodium monoiodoacetate (MIA)-induced model rats
Experiment: Analgesic effect on sodium monoiodoacetate-induced model rats (right hind limb weight load ratio)
Type: in vivo, rat
[1] = day 24, test substance oral twice a day over 10 days, 3 hours after last administration, experiment with tramadol as positive control (Table 7)
[2] = day 24, test substance oral twice a day over 10 days, 3 hours after last administration, experiment with morphine as positive control (Table 8)

SMILES: Nc1ncc(Cl)cc1-c1ccc(Oc2ncc(NC(=O)Nc3cc(C(F)(F)F)ccc3-n3cccn3)cn2)cc1 [Example 7, 1-(2-(1H-pyrazol-1-yl)-5-(trifluoromethyl)phenyl)-3-(2-(4-(2-amino-5-chloropyridin-3-yl)phenoxy)pyrimidin-5-yl)urea]
- Percent improvement (%) [1]: 61%

SMILES: Cc1cn(-c2ccc(C(F)(F)F)cc2NC(=O)Nc2cnc(Oc3ccc(-c4cc(Cl)cnc4N)cc3)nc2)nn1 [Example 8-1, 1-(2-(4-(2-amino-5-chloropyridin-3-yl)phenoxy)pyrimidin-5-yl)-3-(2-(4-methyl-1H-1,2,3-triazol-1-yl)-5-(trifluoromethyl)phenyl)urea]
- Percent improvement (%) [1]: 60%

SMILES: Nc1ncc(F)cc1-c1ccc(Oc2ncc(NC(=O)Nc3cc(C(F)(F)F)ccc3-n3ccnn3)cn2)cc1 [Example 14-5, 1-(2-(1H-1,2,3-triazol-1-yl)-5-(trifluoromethyl)phenyl)-3-(2-(4-(2-amino-5-fluoropyridin-3-yl)phenoxy)pyrimidin-5-yl)urea]
- Percent improvement (%) [1]: 47%

SMILES: Nc1ncc(F)cc1-c1ccc(Oc2ncc(NC(=O)Nc3cc(C(F)(F)F)ccc3-c3cccnc3)cn2)cc1 [Example 14-6, 1-(2-(4-(2-amino-5-fluoropyridin-3-yl)phenoxy)pyrimidin-5-yl)-3-(2-(pyridin-3-yl)-5-(trifluoromethyl)phenyl)urea]
- Percent improvement (%) [2]: 53%

SMILES: Nc1ncc(Cl)cc1-c1ccc(Oc2ncc(NC(=O)Nc3ccc(C(F)(F)F)cc3Cl)cn2)cc1 [Example 15-6, 1-(2-(4-(2-amino-5-chloropyridin-3-yl)phenoxy)pyrimidin-5-yl)-3-(2-chloro-4-(trifluoromethyl)phenyl)urea]
- Percent improvement (%) [1]: 51%

SMILES: Nc1ncc(C(F)(F)F)cc1-c1ccc(Oc2ncc(NC(=O)Nc3cc(C(F)(F)F)ccc3-n3ccc(C(F)(F)F)n3)cn2)cc1 [Example 15-52, 1-(2-{4-[2-amino-5-(trifluoromethyl)-3-pyridinyl]phenoxy}-5-pyrimidinyl)-3-{5-(trifluoromethyl)-2-[3-(trifluoromethyl)-1H-pyrazol-1-yl]phenyl}urea]
- Percent improvement (%) [2]: 60%

SMILES: Nc1ncc(Cl)cc1-c1ccc(Oc2ncc(NC(=O)Nc3cc(C(F)(F)F)ccc3-c3ccccc3)cn2)cc1 [Example 15-55, 1-{2-[4-(2-amino-5-chloro-3-pyridinyl)phenoxy]-5-pyrimidinyl}-3-[4-(trifluoromethyl)-2-biphenylyl]urea]
- Percent improvement (%) [2]: 62%

SMILES: Nc1ncc(Cl)cc1-c1ccc(Oc2ncc(NC(=O)Nc3cc(C(F)(F)F)ccc3-n3cc(Cl)cn3)cn2)cc1 [Example 15-63, 1-{2-[4-(2-amino-5-chloro-3-pyridinyl)phenoxy]-5-pyrimidinyl}-3-[2-(4-chloro-1H-pyrazol-1-yl)-5-(trifluoromethyl)phenyl]urea]
- Percent improvement (%) [2]: 53%

SMILES: Nc1ncc(Cl)cc1-c1ccc(Oc2ncc(NC(=O)Nc3ccc(C(F)(F)F)cc3C(F)(F)F)cn2)cc1 [Example 15-77, 1-{2-[4-(2-amino-5-chloro-3-pyridinyl)phenoxy]-5-pyrimidinyl}-3-[2,4-bis(trifluoromethyl)phenyl]urea]
- Percent improvement (%) [2]: 55%

SMILES: Nc1ncc(C(F)(F)F)cc1-c1ccc(Oc2ncc(NC(=O)Nc3cc(C(F)(F)F)ccc3-n3cc(Cl)cn3)cn2)cc1 [Example 15-87, 1-(2-{4-[2-amino-5-(trifluoromethyl)-3-pyridinyl]phenoxy}-5-pyrimidinyl)-3-[2-(4-chloro-1H-pyrazol-1-yl)-5-(trifluoromethyl)phenyl]urea]
- Percent improvement (%) [2]: 57%

SMILES: CS(=O)(=O)c1ccc(C(F)(F)F)cc1NC(=O)Nc1cnc(Oc2ccc(-c3cc(C(F)(F)F)cnc3N)cc2)nc1 [Example 15-98, 1-(2-{4-[2-amino-5-(trifluoromethyl)-3-pyridinyl]phenoxy}-5-pyrimidinyl)-3-[2-(methylsulfonyl)-5-(trifluoromethyl)phenyl]urea]
- Percent improvement (%) [2]: 57%

SMILES: CS(=O)(=O)c1ccc(C(F)(F)F)cc1NC(=O)Nc1cnc(Oc2ccc(-c3cc(Cl)cnc3N)cc2)nc1 [Example 15-104, 1-{2-[4-(2-amino-5-chloro-3-pyridinyl)phenoxy]-5-pyrimidinyl}-3-[2-(methylsulfonyl)-5-(trifluoromethyl)phenyl]urea]
- Percent improvement (%) [2]: 54%

SMILES: COc1ccn2ncc(-c3ccc(Oc4ncc(NC(=O)Nc5cc(C(F)(F)F)ccc5-c5cccnc5)cn4)cc3)c2n1 [Example 21-9, 1-(2-(4-(5-methoxypyrazolo[1,5-a]pyrimidin-3-yl)phenoxy)pyrimidin-5-yl)-3-(2-(pyridin-3-yl)-5-(trifluoromethyl)phenyl)urea]
- Percent improvement (%) [1]: 64%

SMILES: O=C(Nc1cnc(Oc2ccc(-c3cnn4cccnc34)cc2)nc1)Nc1cc(C(F)(F)F)ccc1-c1cccnc1 [Example 21-13, 1-(2-(4-(pyrazolo[1,5-a]pyrimidin-3-yl)phenoxy)pyrimidin-5-yl)-3-(2-(pyridin-3-yl)-5-(trifluoromethyl)phenyl)urea]
- Percent improvement (%) [1]: 66%

SMILES: CN(C)c1ccn2ncc(-c3ccc(Oc4ncc(NC(=O)Nc5cc(C(F)(F)F)ccc5-c5cccnc5)cn4)cc3)c2n1 [Example 21-37, 1-(2-{4-[5-(dimethylamino)pyrazolo[1,5-a]pyrimidin-3-yl]phenoxy}-5-pyrimidinyl)-3-[2-(3-pyridinyl)-5-(trifluoromethyl)phenyl]urea]
- Percent improvement (%) [2]: 67%

SMILES: CN(C)c1ccn2ncc(-c3ccc(Oc4ncc(NC(=O)Nc5cc(C(F)(F)F)ccc5-c5ccnn5C)cn4)cc3)c2n1 [Example 21-51, 1-(2-{4-[5-(dimethylamino)pyrazolo[1,5-a]pyrimidin-3-yl]phenoxy}-5-pyrimidinyl)-3-[2-(1-methyl-1H-pyrazol-5-yl)-5-(trifluoromethyl)phenyl]urea]
- Percent improvement (%) [2]: 68%

SMILES: CN(C)c1ccn2ncc(-c3ccc(Oc4ncc(NC(=O)Nc5cc(C(F)(F)F)ccc5-c5ccccc5)cn4)cc3)c2n1 [Example 21-70, 1-(2-{4-[5-(dimethylamino)pyrazolo[1,5-a]pyrimidin-3-yl]phenoxy}-5-pyrimidinyl)-3-[4-(trifluoromethyl)-2-biphenylyl]urea]
- Percent improvement (%) [2]: 61%

SMILES: Cc1cccc(-c2ccc(C(F)(F)F)cc2NC(=O)Nc2cnc(Oc3ccc(-c4cnn5ccc(N(C)C)nc45)cc3)nc2)c1 [Example 21-73, 1-(2-{4-[5-(dimethylamino)pyrazolo[1,5-a]pyrimidin-3-yl]phenoxy}-5-pyrimidinyl)-3-[3′-methyl-4-(trifluoromethyl)-2-biphenylyl]urea]
- Percent improvement (%) [2]: 62%

SMILES: COc1cccc(C2(O)CCCCC2CN(C)C)c1 (stereo not shown) [Tramadol, reference compound]
- Percent improvement (%) (day 24, positive control drug, 10 mg/kg subcutaneous, 1 hour after administration (Table 7)): 43%
